Entries after “also recorded” stand apart in the source; their conditions may differ. Numbered stars: 1 amine (or outer) side, 2 acyl side, 3 side chain; on linkers, the order of the positions; unused ones are H or OH. Peptide text beside a SMILES is read from it. * marks the point of attachment. X1 = Brc1ccc2c(c1)-c1cc(N*)ccc1C2; Suc = O=C(CCC(=O)[*:2])[*:1]
Experiments:
Macrosiphum rosae = assay: Desiccation/starvation tolerance assay after peptide microinjection; format: in vivo; details: for Reduction of LTime50 relative to control / Reduction of median survival relative to control: M. rosae, desiccation/starvation stress; for Documented effect on desiccation/starvation mortality / LTime50 (h), test / Median IQR survival (h), test: Macrosiphum rosae, microinjection; for Documented effect on desiccation/starvation mortality: final concentration ×10^−5 M, relative to vehicle control; for LTime50 (h), test / Median IQR survival (h), test: ×10^−5 M, desiccation and starvation stress, test group
Method: (§1) Neuropeptides were administered to test aphids via microinjection to allow for rapid mass screening of neuropeptide analogue efficacy. For this, native neuropeptides were diluted in double distilled water (DDH2O) to a concentration of 1×10^−5 M. Neuropeptide analogues were diluted in DDH2O to the following concentrations: kinin analogues 1728 (2.5×10^−5 M), 2139 (3.5×10^−5 M), 2139-Ac (3.5×10^−5 M); CAP2b analogues 1895 (3.5×10^−5 M), 1896 (3.5×10^−5 M), 1902 (3.5×10^−5 M), 2089 (3.9×10^−5 M), 2123 (1.0×10^−5 M), 2125 (1.0×10^−5 M), 2129 (2.0×10^−5 M). Once at the desired concentration, neuropeptide solutions were administered to test aphids at an injection volume of 9 nl based on total haemolymph volume, to produce an approximate 1:20 dilution of injection volume to haemolymph. Injections were performed using a pulled glass needle and a Nanoject II Auto-Nanoliter Injector (Drummond Scientific Company, Broomall, Pa.). A vehicle control was set up for each treatment/day of experiments to account for variation in needle pulling. For this, control aphids were injected with 9 nl of DDH2O and subsequently exposed to the same experiments as aphids receiving the neuropeptide treatment. Neuropeptide treated and vehicle control aphids were subsequently used in the stress bioassays detailed below.
(§2) Anholocyclic adults of mixed age of either M. persicae or M. rosae were selected from the stock cultures and treated with a native neuropeptide or neuropeptide analogue via microinjection using the method detailed above. Treated and vehicle control aphids were allowed to recover on excised leaves of the host plant for 1 h before being placed in an empty ventilated microcage (L=4 cm, 0=9.5 cm) at densities of 10 per cage. In total, 30-40 aphids were treated for each neuropeptide treatment group and a further 30-40 for the associated vehicle control group. From the point of placement in the microcage (taken as 0 h), aphid survival was checked every hour during daylight hours and approximately every 4 h during night-time hours until the final aphid died. Survival data were subsequently analysed using a Log-rank (Mantel-Cox) text in GraphPad Prism version 7.0. LTime50 (the time taken to kill 50% of the test population) values were calculated via Probit Analysis in Minitab 17 (Minitab Inc., State College, Pa.).

Myzus persicae = assay: as above; format: in vivo; details: for Reduction of LTime50 relative to control / Reduction of median survival relative to control: M. persicae, desiccation/starvation stress; for Documented effect on desiccation/starvation mortality / LTime50 (h), test / Median ± IQR survival (h), test: Myzus persicae, microinjection; for Documented effect on desiccation/starvation mortality: final concentration ×10^−5 M, relative to vehicle control; for LTime50 (h), test / Median ± IQR survival (h), test: ×10^−5 M, desiccation and starvation stress, test group
Method: as §1, §2

Aphids = assay: Feeding with peptides in artificial diet, mortality without other stress; format: in vivo, Myzus persicae; details: ingestion via artificial diet
Method: A standard artificial diet for M. persicae was produced as described in Van Emden (2009) and provided the basal diet to which neuropeptide analogues were added for screening purposes. Neuropeptide analogues were diluted individually in the artificial diet to a pre-determined recommended concentration as follows: 1895 (3.5×10^−5 M) and 2019 (2.0×10^−5 M).
Feeding apparatus were constructed using a set-up developed by Sadeghi et al (2009). For this, a piece of Parafilm was stretched over a Plexiglas ring (h=4 cm, Ø=3 cm) and 100 μl of the artificial diet containing the desired neuropeptide analogue was pipette onto the Parafilm membrane. A second piece of Parafilm, stretched to 4 times the original thickness, was stretched over the original layer, sandwiching the artificial diet between two layers of Parafilm. A strip of Parafilm was wrapped around the circumference of the Plexiglas ring, sealing in the diet. A plastic ring (h=1.2 cm, Ø=3.4 cm) was subsequently placed over the Parafilm layer, creating a walled chamber in which to house test aphids in contact with the Parafilm layer containing the artificial diet. Finally, a small Petri dish (h=1 cm, Ø=3.6 cm), modified for ventilation with net cloth, was placed on top of each feeding apparatus to prevent aphid escape.
To obtain aphids for use in experiments, reproducing anholocyclic adults were placed on individual excised leaves of Chinese cabbage at densities of 5 adults per leaf and allowed to reproduce for 24 h. The stem of each excised leaf was held within a 0.5 mL Eppendorf tube containing water via a punctured hole in the Eppendorf lid, and placed individually within a microcage (L=4 cm, Ø=9.5 cm). Following 24 h, adults were removed and resultant first instar nymphs (<1 day old and synchronised in age to within 24 h) retained. Nymphs were allowed to develop on the Chinese cabbage for 5 days. On day 5, (3rd instar) nymphs were transferred onto the artificial diet containing a neuropeptide analogue at densities of 1 per feeding chamber and monitored daily until death. Aphids were transferred to fresh artificial diet (containing neuropeptide analogue) every 5 days. Life history traits recorded include age at first reproduction, number of nymphs produced per 24 h period, and lifespan. From these parameters, lifetime fecundity and daily fecundity were calculated. Control groups were set up involving aphids reared on the host plant, an artificial diet without a neuropeptide analogue, and an artificial diet containing the native CAPA neuropeptide.
Aphids were reared on artificial diet, alone or supplemented with peptide 2129, 2315, 2316 or 2320. A control group (no test peptide) was reared on a host plant. No other stress conditions were applied.
For peptides 2315, 2316 and 2320, mortality was assessed at 48, 72, 96, 120 and 144 hours. A group of 9 or 10 insects was used for each time point, and all experiments were performed at least 4 times.

Compound	Reduction of LTime50 relative to control (Macrosiphum rosae)	Reduction of median survival relative to control (Macrosiphum rosae)	Documented effect on desiccation/starvation mortality (Macrosiphum rosae)	LTime50 (h), test (Macrosiphum rosae)	Median IQR survival (h), test (Macrosiphum rosae)	Reduction of LTime50 relative to control (Myzus persicae)	Reduction of median survival relative to control (Myzus persicae)	Documented effect on desiccation/starvation mortality (Myzus persicae)	LTime50 (h), test (Myzus persicae)	Median ± IQR survival (h), test (Myzus persicae)	change in mortality relative to the control (Aphids; after 24 h)	percentage survival (Aphids; after 24 h)	effect on aphid longevity (Aphids; after the first 24 h)
2Abf-Suc-FGPRL-NH2 [compound 1895]	9.6 h	10.5 h	significantly increase mortality relative to the control; also recorded: significantly increased desiccation/starvation mortality; also recorded: Increases	18.7 | 9.1 h	17.5 ± 19.5 | 7.0 ± 12.5 h	3.5 h	4.0 h	significantly increase mortality relative to the control; also recorded: significantly increased desiccation/starvation mortality; also recorded: Increases	15.9 | 12.4 h	17.8 ± 12.0 | 13.8 ± 11.8 h	–	–	–
CC[C@H](C)[C@H](NC(=O)[C@H](CCCNC(=N)N)NC(=O)[C@@H]1CCCN1C(=O)[C@@H](NC(=O)[C@H](C)NC(=O)CCC(=O)Nc1ccc2c(c1)-c1cc(Br)ccc1C2)[C@@H](C)O)C(N)=O [compound 2129, 2Abf-Suc-ATPRI-NH2] ({X1-Suc}-ATPRI-NH2)	11.6 h	12.8 h	significantly increase mortality relative to the control; also recorded: significantly increased desiccation/starvation mortality; also recorded: Increases	24.3 | 12.7 h	23.8 ± 20.5 | 11.0 ± 13.0 h	7.1 h	9.8 h	significantly increase mortality relative to the control; also recorded: significantly increased desiccation/starvation mortality; also recorded: Increases	15.9 | 8.8 h	17.8 ± 12.0 | 8.0 ± 17.0 h	19.7%	73.8%	highly significant reduction in aphid longevity
